pEC50: −log10 of the molar value.
Molecular target: T1, human GPR119 (Homo sapiens, UniProt Q8TDV5)
T1 construct: expressed in transfected cells; host or cells: HEK-293 cell line stably expressing recombinant GPR119
T1 sequence (Q8TDV5 1-335): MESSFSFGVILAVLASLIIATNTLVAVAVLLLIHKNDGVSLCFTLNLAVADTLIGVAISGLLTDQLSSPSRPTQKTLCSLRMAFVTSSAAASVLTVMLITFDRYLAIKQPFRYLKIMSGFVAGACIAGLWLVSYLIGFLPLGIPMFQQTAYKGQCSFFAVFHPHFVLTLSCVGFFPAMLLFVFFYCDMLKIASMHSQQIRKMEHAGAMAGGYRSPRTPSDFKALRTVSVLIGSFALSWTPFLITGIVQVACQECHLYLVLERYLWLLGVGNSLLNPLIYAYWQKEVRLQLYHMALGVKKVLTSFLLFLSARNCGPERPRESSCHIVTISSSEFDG
Test: Functional cellular assay measuring GPR119-mediated cAMP release (HTRF), HEK-293 cells stably expressing recombinant GPR119
Type: cell-based
Details: cell line expressing human GPR119; cAMP response, 30 minutes at room temperature
Procedure: Functional Cellular Assays Measuring GPR119-Mediated cAMP Release.
Compounds of the invention, which are agonists of GPR119, were characterized by functional assays measuring the cAMP response of HEK-293 cell lines stably expressing recombinant GPR119 from man, mouse or rat, or by using a hamster cell line HIT-T15 expressing GPR119 endogenously. The cAMP content was determined using a kit based on homogenous time-resolved fluorescence (HTRF) from Cisbio Corp. (cat. no. 62AM4PEC). For preparation, cells were split into T175 culture flasks and grown to near confluency in medium (DMEM/10% FCS for HEK-293 cells, and F-12K medium/10% horse serum/2.5% FCS for HIT-T15 cells, respectively). Medium was then removed and cells washed with PBS lacking calcium and magnesium ions, followed by proteinase treatment with accutase (Sigma-Aldrich, cat. no. A6964). Detached cells were washed and resuspended in assay buffer (1×HBSS; 20 mM HEPES, 0.1% BSA, 2 mM IBMX) and cellular density determined. They were then diluted to 400000 cells/mL and 25 μL-aliquots dispensed to the wells of 96-well plates. For measurement, 25 μL of test compound in assay buffer was added and incubated for 30 minutes at room temperature. After addition of HTRF reagents diluted in lysis buffer, the plates were incubated for 1 hour, followed by measuring the fluorescence ratio at 665 vs. 620 nm. Potency of the agonists was quantified by determining the concentrations that caused 50% of the maximal response/activation (EC50). See Table 10 for exemplary data obtained using the cell line expressing human GPR119.

`Cn1cc(COc2ccc(O[C@@H]3CCN(c4cc(F)c5c(c4)C(=O)CC5)C3=O)cn2)cn1` [Example 2-71] and `CCOc1ccc(O[C@H]2CCN(c3cc(F)c4c(c3)C(=O)CC4)C2=O)cn1` [Example 3-21] are within 0.2 log units of each other in pEC50: 5.60 for the first, 5.70 for the second.

`O=C1CCc2c(F)cc(N3CC[C@@H](Oc4ccc(OC5CCC5)nc4)C3=O)cc21` [Example 2-72] and `O=C1CCc2c(F)cc(N3CC[C@@H](Oc4ccc(OC5CC5)nc4)C3=O)cc21` [Example 3-13, (R)-3-(6-Cyclopropoxy-pyridin-3-yloxy)-1-(7-fluoro-3-oxo-indan-5-yl)-pyrrolidin-2-one] are within 0.2 log units of each other in pEC50: 7.80 for the first, 7.72 for the second.

Going from `O=C1CCc2c(F)cc(N3CC[C@@H](Oc4ccc(OCC5CCCOC5)nc4)C3=O)cc21` (stereo partly drawn) [Example 2-73] to `O=C1CCc2c(F)cc(N3CC[C@@H](Oc4ccc(OCC5CCOC5)nc4)C3=O)cc21` (stereo partly drawn) [Example 2-75], the pEC50 rises from 6.80 to 7.02 (0.22 log units).

Going from `O=C1CCc2c(F)cc(N3CC[C@@H](Oc4ccc(OC[C@H]5CCCO5)nc4)C3=O)cc21` [Example 2-74] to `O=C1CCc2c(F)cc(N3CC[C@H](Oc4ccc(OCC5CC5)nc4)C3=O)cc21` [Example 3-12], the pEC50 falls from 7.08 to 6.55 (0.53 log units). The first is the more potent here.

Compared with `O=C1CCc2c(F)cc(N3CC[C@@H](Oc4ccc(O[C@@H]5CCOC5)nc4)C3=O)cc21` [Example 2-76], `O=C1CCc2c(F)cc(N3CC[C@@H](Oc4ccc(OC5CCCOC5)nc4)C3=O)cc21` (stereo partly drawn) [Example 2-78] is 0.45 log units higher in pEC50: 7.03 for the first, 7.48 for the second.

Compared with `O=C1CCc2c(F)cc(N3CC[C@@H](Oc4ccc(OCC(F)(F)F)nc4)C3=O)cc21` [Example 2-77], `O=C1CCc2c(F)cc(N3CC[C@H](Oc4ccc(OCCC5CC5)nc4)C3=O)cc21` [Example 3-11] is 0.77 log units lower in pEC50: 7.36 for the first, 6.59 for the second. The first is the more potent here.

First: O=C1CCc2c(F)cc(N3CC[C@@H](Oc4ccc(OC5CCCOC5)nc4)C3=O)cc21 (stereo partly drawn) [Example 2-79]
Second: CC(C)Oc1ccc(O[C@H]2CCN(c3cc(F)c4c(c3)C(=O)CC4)C2=O)cn1 [Example 3-20]
The pEC50 of the first is 1.21 log units higher: 7.19 for the first, 5.98 for the second.

First: O=C1CCc2c(F)cc(N3CC[C@@H](Oc4ccc(OC(F)(F)F)cc4)C3=O)cc21 [Example 3-01]
Second: CC(=O)c1ccc(O[C@@H]2CCN(c3cc(F)c4c(c3)C(=O)CC4)C2=O)cn1 [Example 3-15]
The pEC50 of the first is 2.53 log units higher: 7.07 for the first, 4.54 for the second.

Compared with `CC(C)c1noc(-c2ccc(O[C@@H]3CCN(c4cc(F)c5c(c4)C(=O)CC5)C3=O)cn2)n1` [Example 3-02], `Cc1cnc(-c2ccc(O[C@@H]3CCN(c4cc(F)c5c(c4)C(=O)CC5)C3=O)cn2)s1` [Example 3-03] is 0.36 log units higher in pEC50: 6.85 for the first, 7.21 for the second.

Compared with `O=C(OCC1CC1)c1ccc(O[C@@H]2CCN(c3cc(F)c4c(c3)C(=O)CC4)C2=O)cn1` [Example 3-04], `O=C1CCc2c(F)cc(N3CC[C@@H](Oc4ccc(SCC5CC5)nc4)C3=O)cc21` [Example 3-17] is 1.10 log units higher in pEC50: 6.86 for the first, 7.96 for the second. The second is the more potent here.

Going from `O=C1CCc2c(F)cc(N3CC[C@@H](Oc4ccc(C(=O)N5CCCC5)nc4)C3=O)cc21` [Example 3-05] to `O=C1CCc2c(F)cc(N3CC[C@@H](Oc4ccc(SC5CC5)nc4)C3=O)cc21` [Example 3-16], the pEC50 rises from 5.50 to 7.72 (2.22 log units).

First: CCCCN(C)C(=O)c1ccc(O[C@@H]2CCN(c3cc(F)c4c(c3)C(=O)CC4)C2=O)cn1 [Example 3-06]
Second: CCCCSc1ccc(O[C@@H]2CCN(c3cc(F)c4c(c3)C(=O)CC4)C2=O)cn1 [Example 3-07]
The pEC50 of the first is 1.95 log units lower: 6.01 for the first, 7.96 for the second. The second is the more potent here.

Compared with `CCCC[S+]([O-])c1ccc(O[C@@H]2CCN(c3cc(F)c4c(c3)C(=O)CC4)C2=O)cn1` (stereo partly drawn) [Example 3-08], `CC(C)CCCc1ccc(O[C@@H]2CCN(c3cc(F)c4c(c3)C(=O)CC4)C2=O)cn1` [Example 3-14] is 0.84 log units higher in pEC50: 6.25 for the first, 7.09 for the second.

`O=C1CCc2c(F)cc(N3CC[C@@H](Oc4cnc(OCC5CC5)c(F)c4)C3=O)cc21` [Example 3-09] and `Cc1cc(O[C@@H]2CCN(c3cc(F)c4c(c3)C(=O)CC4)C2=O)cnc1OCC1CC1` [Example 3-10] are within 0.2 log units of each other in pEC50: 7.92 for the first, 7.74 for the second.

First: CCOc1ncc(O[C@@H]2CCN(c3cc(F)c4c(c3)C(=O)CC4)C2=O)cc1F [Example 3-18]
Second: O=C1CCc2c(F)cc(N3CC[C@@H](Oc4cnc(OCC5CC5)c(Br)c4)C3=O)cc21 [Example 3-19]
The pEC50 of the first is 0.57 log units lower: 7.35 for the first, 7.92 for the second. The second is the more potent here.

Source: US8853412B2, “Pyrrolidinone derivatives as GPR119 modulators for the treatment of diabetes, obesity, dyslipidemia and related disorders” (Sanofi, priority 2012, dated 2014)
